The test system of data set [1] is TGase activity in knee meniscal cells and TC28 cells. Put plainly: TGase activity in nonadherent nodule-forming culture on polyHEME. As to conditions: polyHEME plates, β-glycerophosphate, ascorbate, dexamethasone, up to 10 days; cytokines 10 ng/ml or TGase transfection. It is filed as cell-based, human. As for the experimental part:
FIG. 10 refers to effects of direct Factor XIIIa and tTGase expression on TGase activity in meniscal cells and TC28 cells. Human chondrocytic TC28 cells or normal knee meniscal cells (5×10^5), were plated in 60 mm dishes and allowed to adhere overnight, as described in the Methods. Two μg of plasmid DNAs or empty plasmid vector were then transfected, performed as described above. After 24 hrs, the cells were removed from the dishes and plated on polyHEME-coated tissue culture plates and media supplemented with 10 mM P-glycerophosphate, ascorbatte (50 μg/ml) and dexamethasone (10^−8 M), which stimulated the cells to form mineralizing nodules for 3-10 days in culture. For comparison purposes, cells were treated only with IL-1 or TGFβ (10 ng/ml each) for up to 10 days. At each time point designated, the cell nodules were collected and lysed, and TGase activity then determined as previously described. For meniscal cells, data pooled from 6 donors studied in triplicate. For TC28 cells, n=6 each, studied in triplicate. Statistics not indicated on this graph, but p<0.05 for the increases in TGase activities in response to both Factor XIIIa and tTGase transfection, and for IL-1 treatment, at all time points.
TGase activity was measured by modifications to a previously described method (35). Specifically, we coated 96 well ImmunoModule plates (Nunc, Rochester, N.Y.) with 200 μl of 20 mg/ml N,N-dimethylcasein for 1 hr at 23° C. The N,N-dimethylcasein was removed and nonspecific protein binding was blocked by adding 3% BSA in 100 mM Tris, pH 8.5, 150 mM NaCl, 0.05% Tween-20 (TBST) to each well for an additional 1 hr at 23° C. Then, aliquots of 5 μg of total cellular protein from meniscal or TC28 cells that had been lysed and sonicated (in 5 mM Tris HCl, 0.25 M sucrose, 0.2 mM MgSO4, 2 mM DTT, 0.4 mM PMSF, 0.4% Triton X100, pH 7.5), were added to the plate in triplicate. To measure TGase in extracts of whole menisci, 50 mg dry weight of tissue from the central zone of each medial meniscus was used as the source (after solubilization and sonication) for aliquots of 5 μg of soluble protein. Fifty μl of solution A (100 mM Tris, pH 8.5 and 20 mM CaCl2) was added to all samples for TGase assay, followed by the addition of 50 μl of solution B (100 mM Tris, pH 8.5, 40 mM DTT and freshly added 2 mM 5-(Biotinamido) pentylamine (BP)). The plates were incubated for 1 hr at 37° C. The wells were washed once with TBST containing 1 mM EDTA and then three times with TBST. […] Readings at OD410 were taken over 15 minutes. […] TGase activity was designated as the amount of BP incorporated into casein (per μg cellular DNA, determined chromogenically following precipitation in perchlorate (28), or, where indicated, per μg protein, determined as previously described (28)). […]

For data set [2], the system named is TGase activity (tTGase and Factor XIIIa) in meniscal cells. As to the kind of experiment: TGase activity in cultured knee meniscal cells (BP incorporation into N,N-dimethylcasein). Particulars: monolayer culture, 48-72 hrs; IL-1β, TGFβ, TNFα 10 ng/ml; Noc-12 2.5-25 μM; Sin-1 1-10 μM. The class given is cell-based, human.
Data set [3] relates to S100A11 mRNA in human articular chondrocytes. As to the kind of experiment: S100A11 mRNA expression by RT-PCR. The class given is cell-based. As to conditions: 10 ng/ml, 24 hours, relative to L30. As for the experimental part: Normal human knee articular chondrocytes were treated in culture with IL-1 or IGF-I (10 ng/ml) for 24 hours and ascertained for S100A11 mRNA expression by RT-PCR, relative to the loading control L30, a ribosomal housekeeping gene. Results for induction of S100 A11 representative of 3 separate experiments with different donors.

For “IL-1β: Human recombinant IL-1β purchased from R&D Systems”, the “TGase activity under mineralizing nonadherent conditions” value in data set [1] was “induced significant increases in TGase activity”. Also, the “Induction of TGase activity in cultured normal knee meniscal cells” value in data set [2] was “induced increased TGase activity in a donor age-dependent manner”. In addition, in data set [3], the “S100A11 mRNA expression” value is recorded as “induce mRNA expression of S100A11”.
